≈ marks a conversion by molar mass, not a printed value. Where two headings read alike, the source gives them in different places.
Key:
in vivo [1] = conditions: Sprague-Dawley, rat, 10 mg/kg
in vivo [2] = conditions: male, Sprague-Dawley, rat, in vivo, 10 mg/kg
Procedure: This example relates to aerosol and intravenous administration of fluoroquinolones in saline. A rat pharmacokinetic model was used to compare intravenous and pulmonary administration of fluoroquinolones. […] Doses were administered via the lateral tail vein, or to the lung just above the tracheal bifurcation using a micro-spray aerosol device (Penn Century, Philadelphia, Pa.).
Approximately 0.3 ml blood samples were taken from 2-6 rats at each timepoint via an indwelling jugular vein cannula, and collected in lithium heparin tubes. Bronchial alveolar lavage (BAL) and lung tissue were collected following euthanasia. […] Sample concentrations were determined against a standard curve.

P. aeruginosa NH57388A [3] = assay: Chronic mouse lung infection model; assay type: in vivo; conditions: mice, twice daily for 72 h
Procedure: Bacterial cells were harvested by centrifugation (23,000×g, 30 min, at 4° C.) and resuspended in 3-6 ml of MHB. The supernatant was collected and placed in 80° C. water-bath for 30 min. […] The precipitated alginate was collected with a sterile bacterial loop and washed several times in sterile saline. The purified alginate was then resuspended in 10 ml of sterile saline and stirred vigorously to form a homogeneous suspension. […] The bacterial suspension was diluted (1:10) in the alginate suspension to yield about 10^8 CFU/ml. […] On day 4, the mice were infected using a curved bead-tipped oral gavage attached to a 1 ml syringe while under isoflurane anesthesia.

P. aeruginosa ATCC 27853 [4] = assay: Acute mouse lung infection model; conditions: mice, 2 doses over 24 h
Procedure: Aerosol Administration of antibiotics: Antibiotics were aerosolized using a microspray aerosol device (MicroSprayer Model IA-C, PennCentury, Philadelphia, Pa.) attached to a FMJ-250 High-Pressure Syringe (PennCentury, Philadelphia, Pa.). […] For administration, each mouse was anesthetized (5% isoflurane in oxygen running at 4 L/min) and positioned securely at a 45-50° angle by the upper teeth, the microspray aerosol tip was inserted to the bifurcation and a 50 μl volume was administered.
The bacterial suspensions were adjusted to approximately 1-6×10^5 CFU/ml by correlation of the absorbance at 600 nm with predetermined plate counts. […] On day 4, mice were infected by intratracheal (IT) instillation of 0.05 ml of inoculum using a curved oral gavage tip attached to a 1 ml syringe. […] Antibiotics were aerosolized using a microspray aerosol device. All infections and aerosol treatments were performed under isoflurane anesthesia (5% isoflurane in oxygen running at 4 L/min). An untreated group of mice (n=8) was sacrificed prior to the initiation of treatment to determine baseline bacterial counts. […] The lungs were removed aseptically and homogenized (Pro200 homogenizer, Pro Scientific, Monroe, Conn.) in 1 ml of sterile saline. Serial 10-fold dilutions of the homogenized lung were plated on Mueller-hinton agar (MHA), and colonies counted.
In addition, due to the need for anesthesia for treatment, the maximum number of daily doses was limited to two.

P. aeruginosa = conditions: simulated ELF
[5] = Standard kill-curve and in vitro hollow fiber assay; assay type: cell-based; conditions: high concentrations, 0.018-fold-[…] the MIC evaluated
From the text: Fluoroquinolone efficacy in humans, animals and in vitro models of infection is linked to AUC:MIC ratio and Cmax:MIC ratio.

in vivo [6] = conditions: Sprague-Dawley, rat, 10 mg/kg; remark: listed apart in the source
P. aeruginosa NH57388A [7] = assay: MIC, broth microdilution; assay type: cell-based; conditions: Pseudomonas aeruginosa, NH57388A, P. aeruginosa NIH57388A CF; read-out: MIC
Procedure: (§1) Bacterial strains MIC testing: P. aeruginosa ATCC 27853 and NH57388A were used in these studies. MICs were determined by a broth microdilution assay according to CLSI reference methods (Methods for dilution of antimicrobial susceptibility test for bacteria that grow aerobically. Seventh Edition: Clinical and Laboratory Standards Institute (2006) M&-A7, incorporated by reference in its entirety). Assays were performed in a final volume of 100 μl. The bacterial suspensions were adjusted to yield a cell density of 5×10^5 CFU/ml. Antibiotics were prepared at a concentration equivalent to twofold the highest desired final concentration in culture medium and were then diluted directly into 96-well microtiter plates. Microtiter plates were incubated for 24 h at 35° C. and were read by using a microtiter plate reader (Molecular Devices) at 600 nm as well as by visual observation by using a microtiter plate reading mirror.

P. aeruginosa ATCC 27853 [8] = assay: MIC, broth microdilution; assay type: cell-based; conditions: Pseudomonas aeruginosa, ATCC27853, P. aeruginosa ATCC27853
Procedure: as §1

[9] = Sprague-Dawley, rat, in vivo, 10 mg/kg
[10] = rat, 10 mg/kg
clinical = conditions: human, in vivo

`C[C@H]1COc2c(N3CCN(C)CC3)c(F)cc3c(=O)c(C(=O)O)cn1c23` [Levofloxacin, levofloxacin] gave an MRT (in vivo [1]; inhaled or intranasal) of 42 min, a half-life (in vivo [1]; inhaled or intranasal) of 30 min and an MRT (in vivo [1]; iv) of 42 min. The half-life (in vivo [1]; iv) was 30 min, the “F, % from Lung vs IV” value (in vivo [2]) was 97% and the MAT (in vivo [2]) was 0 h. The AUC (in vivo [2]; inhaled or intranasal) was 3000 ng·h/mL, the AUC(0-inf) (in vivo [2]; inhaled or intranasal) was 3700 ng·h/mL and the MRT (in vivo [2]; inhaled or intranasal) was 42 min. For the same compound, the half-life (in vivo [2]; inhaled or intranasal) was 30 min, the AUC (in vivo [2]; iv) was 1600 ng·h/mL and the AUC(0-inf) (in vivo [2]; iv) was 3800 ng·h/mL. The MRT (in vivo [2]; iv) was 42 min, the half-life (in vivo [2]; iv) was 30 min and the “log increase in bacterial counts” value (P. aeruginosa NH57388A [3]; intraperitoneal 15 mg/kg in saline) was 0.83 log. For the same compound, the “log increase in bacterial counts” value (P. aeruginosa NH57388A [3]; intraperitoneal 30 mg/kg in saline) was 0.32 log, the “log increase in bacterial counts” value (P. aeruginosa NH57388A [3]; intraperitoneal 60 mg/kg in saline) was 0.15 log and the “reductions in lung bacterial counts” value (P. aeruginosa ATCC 27853 [4]; systemic (IP) 32 mg/kg) was 0.65 log CFU. The “reductions in lung bacterial counts” value (P. aeruginosa ATCC 27853 [4]; systemic (IP) 62.5 mg/kg) was 2.7 log CFU, the “24 h AUC” value (P. aeruginosa; 20 mg BID) was 700 mg·h/L and the Cmax (P. aeruginosa; 20 mg BID) was 500 mg/L. The “24 h AUC” value (P. aeruginosa; 40 mg BID) was 1,400 h · mg/L, the Cmax (P. aeruginosa; 40 mg BID) was 1,000 mg/L and the “24 h AUC” value (P. aeruginosa; 80 mg BID) was 2,800 h · mg/L. The Cmax (P. aeruginosa; 80 mg BID) was 2,000 mg/L, the “24 h AUC” value (P. aeruginosa; 120 mg BID) was 4,200 h · mg/L and the Cmax (P. aeruginosa; 120 mg BID) was 3,000 mg/L. For the same compound, the “time to reach maximum levels of killing” value [5] was 10 to 20 min, the CL/F (in vivo [6]; inhaled or intranasal) was 47.2 mL/min/kg and the Cmax (in vivo [6]; inhaled or intranasal) was 6010 ng/mL. The MRT (in vivo [6]; inhaled or intranasal) was 42.6 min, the bioavailability (in vivo [6]; inhaled or intranasal) was 97.4% and the half-life (in vivo [6]; inhaled or intranasal) was 31.2 min. For the same compound, the Cmax (in vivo [6]; iv) was 5540 ng/mL, the MRT (in vivo [6]; iv) was 42 min and the half-life (in vivo [6]; iv) was 29.4 min. For the same compound, the MIC (P. aeruginosa NH57388A [7]) was 2 µg/mL (≈ 5.53 µM), the MIC (P. aeruginosa ATCC 27853 [8]) was 1 µg/mL (≈ 2.77 µM) and the “F, % from Lung vs IV” value [9] was 97%. The “Plasma MAT” value ([10]; Sprague-Dawley, in vivo) was 0.01 h, the “Plasma CL/F” value ([10]; IV, mean (+/- SD)) was 2.81 (±0.54) L/hr/kg and the AUC(0-inf) (clinical; iv, 50 mg, Serum AUC(0-inf)) was 3910 ng·h/mL. It also gave a Cmax (clinical; iv, 50 mg, Serum Cmax) of 2550 ng/mL, a half-life (clinical; iv, 50 mg, Serum t1/2, IV 50 mg) of 353 min and an AUC(0-inf) (clinical; iv, 50 mg, Sputum AUC(0-inf)) of 5700 ng·h/mL. The Cmax (clinical; iv, 50 mg, Sputum Cmax) was 1050 ng/mL, the half-life (clinical; po, 750 mg) was 402 min and the AUC(0-inf) (clinical; po, 750 mg, Serum AUC(0-inf)) was 76600 ng·h/mL. It also gave a Cmax (clinical; po, 750 mg, Serum Cmax) of 7300 ng/mL, a half-life (clinical; po, 750 mg, Serum t1/2, Oral 750 mg, CF patients) of 456 min and an AUC(0-inf) (clinical; po, 750 mg, Sputum AUC(0-inf)) of 93400 ng·h/mL. For the same compound, the Cmax (clinical; po, 750 mg, Sputum Cmax) was 8700 ng/mL.

— patent publication US10722519B2, “Aerosol fluoroquinolone formulations for improved pharmacokinetics” (priority 2008, dated 2020)
